Test results: patent US7692030B2, “Conjugates of artemisinin-related endoperoxides and hydrazone derivatives for the treatment of cancer” (University of Washington, priority 2006, dated 2010)

How the values were obtained:
Assay in all cases: NCI DTP human tumor cell line screen (SRB)
Type in all cases: cell-based
SK-MEL-2 = conditions: Melanoma, 10 μM, 48 h
Description: (§1) Representative compounds of the invention, prepared as described in EXAMPLES 1-6, were submitted to the Developmental Therapeutics Program of the United States National Cancer Institute (NCl) to screen for anti-cancer activity. The anti-cancer activities of the six compounds were tested against approximately 60 human tumor cell lines representing leukemia, melanoma, and cancers of the lung, colon, breast, ovary, kidney, prostate, and brain. The following screening methodology was provided by the NCl. […] For experimental screens, cells were inoculated into 96 well microtiter plates in 100 μL at plating densities ranging from 5,000 to 40,000 cells/well depending on the doubling time of individual cell lines. After cell inoculation, the microtiter plates were incubated at 37° C., 5% carbon dioxide, 95% air and 100% relative humidity for 24 hours prior to addition of the compounds. After 24 hours of incubation, two plates of each cell line were fixed in situ with trichloroacetic acid (TCA) to represent a measurement of the cell population for each cell line at the time of compound addition (Tz). The compounds were solubilized in dimethyl sulfoxide at 400-fold the desired final maximum test concentration and stored frozen prior to use. At the time of drug addition, frozen aliquots of the compounds thawed and diluted with complete medium containing 50 μg/ml gentamicin. Aliquots of 100 μl of these different compound dilutions were added to the appropriate microtiter wells already containing 100 μl of medium, resulting in the required final compound concentration of 10 μM. Following compound addition, the plates were incubated for an additional 48 h at 37° C., 5% carbon dioxide, 95% air, and 100% relative humidity. For adherent cells, the assay was terminated by the addition of cold TCA. Cells were fixed in situ by the gentle addition of 50 μl of cold 50% (w/v) TCA (final concentration, 10% TCA) and incubated for 60 minutes at 4° C. The supernatant was discarded, and the plates were washed five times with tap water and air dried. Sulforhodamine B (SRB) solution (100 μl) at 0.4% (w/v) in 1% acetic acid was added to each well, and plates were incubated for 10 minutes at room temperature. After staining, unbound dye was removed by washing five times with 1% acetic acid and the plates were air dried. Bound stain was subsequently solubilized with 10 mM trizma base, and the absorbance was read on an automated plate reader at a wavelength of 515 nm. For suspension cells, the methodology was the same except that the assay was terminated by fixing settled cells at the bottom of the wells by gently adding 50 μl of 80% TCA (final concentration, 16% TCA). Using the three absorbance measurements [time zero, (Tz), control growth, (C), and test growth in the presence of compound (Ti)], the percentage growth was calculated at each of the compound concentrations levels. Percentage growth inhibition was calculated with the following algorithms: [(Ti−Tz)/(C−Tz)]×100 for concentrations for which Ti>/=Tz [(Ti−Tz)/Tz]×100 for concentrations for which Ti<Tz The results of the NCl in vitro anticancer screening with six compounds against various human tumor cell lines are presented below in Tables 2-7. […] The growth percent mean, delta, and range for each compound are given below.

T-47D = conditions: Breast Cancer, 10 μM, 48 h
Description: as §1

NCI-H226 = conditions: Non-Small Cell Lung Cancer, 10 μM, 48 h
Description: as §1

HS 578T = conditions: Breast Cancer, 10 μM, 48 h
Description: as §1

TK-10 = conditions: Renal Cancer, 10 μM, 48 h
Description: as §1

SN12C = conditions: Renal Cancer, 10 μM, 48 h
Description: as §1

SNB-19 = conditions: CNS Cancer, 10 μM, 48 h
Description: as §1

HCT-15 = conditions: Colon Cancer, 10 μM, 48 h
Description: as §1

SR = conditions: Leukemia, 10 μM, 48 h
Description: as §1

UACC-62 = conditions: Melanoma, 10 μM, 48 h
Description: as §1

COLO 205 = conditions: Colon Cancer, 10 μM, 48 h
Description: as §1

ACHN = conditions: Renal Cancer, 10 μM, 48 h
Description: as §1

CAKI-1 = conditions: Renal Cancer, 10 μM, 48 h
Description: as §1

MCF7 = conditions: Breast Cancer, 10 μM, 48 h
Description: as §1

OVCAR-5 = conditions: Ovarian Cancer, 10 μM, 48 h
Description: as §1

RPMI-8226 = conditions: Leukemia, 10 μM, 48 h
Description: as §1

SK-OV-3 = conditions: Ovarian Cancer, 10 μM, 48 h
Description: as §1

PC-3 = conditions: Prostate Cancer, 10 μM, 48 h
Description: as §1

NCI-H23 = conditions: Non-Small Cell Lung Cancer, 10 μM, 48 h
Description: as §1

MDA-MB-435 = conditions: Breast Cancer, 10 μM, 48 h
Description: as §1

CCRF-CEM = conditions: Leukemia, 10 μM, 48 h
Description: as §1

HOP-62 = conditions: Non-Small Cell Lung Cancer, 10 μM, 48 h
Description: as §1

EKVX = conditions: Non-Small Cell Lung Cancer, 10 μM, 48 h
Description: as §1

NCI/ADR-RES = conditions: Breast Cancer, 10 μM, 48 h
Description: as §1

786-0 = conditions: Renal Cancer, 10 μM, 48 h
Description: as §1

BT-549 = conditions: Breast Cancer, 10 μM, 48 h
Description: as §1

U251 = conditions: CNS Cancer, 10 μM, 48 h
Description: as §1

MOLT-4 = conditions: Leukemia, 10 μM, 48 h
Description: as §1

A498 = conditions: Renal Cancer, 10 μM, 48 h
Description: as §1

SF-295 = conditions: CNS Cancer, 10 μM, 48 h
Description: as §1

SW-620 = conditions: Colon Cancer, 10 μM, 48 h
Description: as §1

NCI-H460 = conditions: Non-Small Cell Lung Cancer, 10 μM, 48 h
Description: as §1

| SMILES | Growth Percent (SK-MEL-2) [%] | Growth Percent (T-47D) [%] | Growth Percent (NCI-H226) [%] | Growth Percent (HS 578T) [%] | Growth Percent (TK-10) [%] | Growth Percent (SN12C) [%] | Growth Percent (SNB-19) [%] | Growth Percent (HCT-15) [%] | Growth Percent (SR) [%] | Growth Percent (UACC-62) [%] | Growth Percent (COLO 205) [%] | Growth Percent (ACHN) [%] | Growth Percent (CAKI-1) [%] | Growth Percent (MCF7) [%] | Growth Percent (OVCAR-5) [%] | Growth Percent (RPMI-8226) [%] | Growth Percent (SK-OV-3) [%] | Growth Percent (PC-3) [%] | Growth Percent (NCI-H23) [%] | Growth Percent (MDA-MB-435) [%] | further results |
| --- | --- | --- | --- | --- | --- | --- | --- | --- | --- | --- | --- | --- | --- | --- | --- | --- | --- | --- | --- | --- | --- |
| Cc1ncc(CO)c(C=NNC(=O)c2ccc(COC3OC4OC5(C)CCC6C(C)CCC(C3C)C46OO5)cc2)c1O (stereo not drawn) [ART-Phe-Pyridoxal, N′-(5-hydroxy-3-hydroxymethyl-2-methyl-4-pyridylidene)-4-(dihydroxyartemisinin-methyl)-phenyl carbohydrazide] | 20.14 | −2.71 | 4.49 | −15.69 | 6.35 | 16.82 | 4.26 | 15.22 | −29.75 | −8.10 | −4.40 | 7.45 | −12.33 | 1.55 | 44.98 | 9.56 | −4.66 | 31.12 | 13.86 | 18.74 | Growth Percent (CCRF-CEM): 2.34%; Growth Percent (HOP-62): 20.25%; Growth Percent (EKVX): 12.34%; Growth Percent (NCI/ADR-RES): 44.16%; Growth Percent (786-0): −19.54%; Growth Percent (BT-549): −18.57%; Growth Percent (U251): 17.87%; Growth Percent (MOLT-4): −25.71%; Growth Percent (A498): −36.78%; Growth Percent (SF-295): 25.08%; Growth Percent (SW-620): 14.32%; Growth Percent (NCI-H460): −3.33% |
| CC1CCC2C(C)C(OCc3ccc(C(=O)NN=Cc4ccccc4O)nc3)OC3OC4(C)CCC1C32OO4 (stereo not drawn) [ART-Pyr-Sal, N′-(2-hydroxybenzylidene)-5-(dihydroxyartemisinin-methyl)-2-pyridine carbohydrazide] | −23.42 | 12.21 | 1.83 | 19.38 | 31.03 | 22.81 | 20.71 | 21.89 | −30.14 | 7.61 | 30.63 | 10.64 | 18.48 | 13.61 | 55.16 | 13.76 | 11.40 | 21.62 | 16.47 | 30.18 | Growth Percent (CCRF-CEM): −17.26%; Growth Percent (HOP-62): 20.73%; Growth Percent (EKVX): 32.52%; Growth Percent (NCI/ADR-RES): 6.72%; Growth Percent (786-0): −17.58%; Growth Percent (BT-549): 15.65%; Growth Percent (U251): 14.70%; Growth Percent (MOLT-4): 10.13%; Growth Percent (A498): 5.27%; Growth Percent (SF-295): 4.52%; Growth Percent (SW-620): 26.43%; Growth Percent (NCI-H460): 0.12% |
| CC1CCC2C(C)C(OCc3ccc(C(=O)NN=Cc4ccccc4)cc3)OC3OC4(C)CCC1C32OO4 (stereo not drawn) [ART-Phe-Bz, N′-(benzylidene)-4-(dihydroxyartemisinin-methyl)-phenyl carbohydrazide] | −3.22 | 11.51 | 29.10 | 34.12 | 19.78 | 23.38 | 51.29 | 16.27 | −24.04 | 24.51 | 17.72 | 16.91 | 5.53 | 11.63 | 28.19 | 1.50 | 53.03 | 12.32 | 30.10 | 12.48 | Growth Percent (CCRF-CEM): 6.71%; Growth Percent (HOP-62): 52.14%; Growth Percent (EKVX): 16.45%; Growth Percent (NCI/ADR-RES): 19.93%; Growth Percent (786-0): 26.79%; Growth Percent (BT-549): 14.60%; Growth Percent (U251): 36.35%; Growth Percent (MOLT-4): −25.73%; Growth Percent (A498): 30.47%; Growth Percent (SF-295): 14.30%; Growth Percent (SW-620): 19.48%; Growth Percent (NCI-H460): 32.58% |
